Experimental data as given in patent US10538561B2, “Peptide for treating inflammatory diseases” (priority 2015, dated 2020).

Columns and labels:
[1] = tested on: Human Keratinocytes (HaCaT); experiment: DNA fragmentation assay in HaCaT; assay type: cell-based; conditions: 48 h
Procedure: Cells were lysed and fragmented DNA was precipitated using PEG/NaCl solution. The fragmented DNA was incubated with 0.2 μg/ml of Hoechst 33258 dye and fluorescence was read at 360 ex/460 em. End point: Percentage induction of DNA fragmentation with respect to untreated Positive control. Anthralin. IS 181 led to induction of DNA fragmentation in HaCaT cells at all the concentrations tested except at 100 μg/ml. […] The overall effect of IS 181 on induction of DNA fragmentation with respect to untreated in HaCaT cells ranged from −18.8% to 83.3%. (FIG. 8 and Table-6).

[2] = tested on: Human endothelial cells (EA.hy 926); experiment: Tube formation in endothelial cells; assay type: cell-based; design: endothelial morphogenesis on matrigel: dose or concentration left out as unconfirmed; conditions: Ea.hy.926, 8 hours
Procedure: Cell lines: Human endothelial cells (EA.Hy 926); test item: IS 181; treatment regimen; multiple additions (2)—48 hours; concentration range: 100 6 g/ml to 5000 6 g/ml (Duplicate wells); sera condition: medium containing 1% FBS. Non-cytotoxic concentrations of IS 181 were determined using MTT assay. EA.hy926 cells were plated on ECMatrix solution. Cells were treated with IS 181 for 8 hours. Endothelial tubes were visualized under inverted light microscope at 40× magnification and images were captured. End point: visual pattern recognition and scoring of photomicrographs (FIGS. 11A-11G) based on Table-11 below: […]

[3] = Cell viability of THP-1 (MTT); assay type: cell-based, Human; conditions: human, THP-1 monocytic cells, THP-1, 24 h, read-out: Cell viability (wrt Untreated)
Procedure: (§1) Cell lines: Human monocytic cell line (THP-1); test item: IS181: treatment regimen; single addition—24 hours; concentration range: 10 μg/ml-5000 μg/ml. A) Identification of non-cytotoxic concentrations: THP-1 cells were treated with IS181 for 24 hours; effect on cell viability was assessed by MTT assay; concentrations leading to >75% cell viability were selected for IL-23 assay. […] Positive control: curcumin. […] Since supernatants corresponding to 5 concentrations were to be tested for […], we also tested 1 mg/ml.

[4] = tested on: Human monocytic cell line (THP-1); experiment: Cell viability of THP-1 (MTT); assay type: cell-based
Procedure: as §1

EGFR (ErbB1) = EGFR (ErbB1) (Homo sapiens, UniProt P00533); experiment: Biochemical kinase assay EGFR
Procedure: (§2) Test system: cell free assays; test items: IS181; concentrations tested: 1 ng/ml-5000 μg/ml; Kinases: a) Cell free assays: EGFR (ErbB1); FLT1 (VEGFR1); JAK1; JAK3 MAP2K1 (MEK1); PDGFRA (PDGFR alpha); PRKCA (PKC alpha); b) cell based assay: JAK-STAT.

MAP2K1 (MEK1) = MAP2K1 (MEK1) (Homo sapiens, UniProt Q02750); experiment: Biochemical kinase assay MAP2K1
Procedure: as §2

8-oxo-G = experiment: UVB damage: 8-oxo-G formation (ELISA); assay type: cell-based, human; conditions: HaCaT, UVB 30 mJ/cm2, 5 μg/ml
Procedure: Effect on Cyclobutane Pyrimidine Dimers (CPD); Effect on 8-oxo-G formation: Cell line: HaCaT (human keratinocytes); test items: IS 181; concentration range: 0.1-100 μg/ml (Duplicate wells). Method of estimation: Plating of cells; Sera starvation with 0.1% FBS (24 hours); treatment of cells with test items (24 hours); UVB damage (30 mJ/cm2)+Test items addition (24 hours); Cyclobutane pyrimidine dimers (CPD) and 8-oxo-G estimation using ELISA.

[5] = tested on: Imiquimod (IMQ) induced psoriasis; experiment: Imiquimod (IMQ) induced psoriasis model; assay type: in vivo, BALB/C mice
Procedure: The Experiment was carried out in Imiquimod (IMQ) induced psoriasis model in mice. […] […] There was a trend in animals treated with IS-181 through s.c. in ear thickness (life phase), punch biopsy, spleen weight and histopathology. […] Thus, […] In the view of this, it may be worth to explore the potency of the peptide for the diseases where TNFα playing central role in pathogenesis.

Sequence of MAP2K1 (MEK1) (Q02750 whole entry): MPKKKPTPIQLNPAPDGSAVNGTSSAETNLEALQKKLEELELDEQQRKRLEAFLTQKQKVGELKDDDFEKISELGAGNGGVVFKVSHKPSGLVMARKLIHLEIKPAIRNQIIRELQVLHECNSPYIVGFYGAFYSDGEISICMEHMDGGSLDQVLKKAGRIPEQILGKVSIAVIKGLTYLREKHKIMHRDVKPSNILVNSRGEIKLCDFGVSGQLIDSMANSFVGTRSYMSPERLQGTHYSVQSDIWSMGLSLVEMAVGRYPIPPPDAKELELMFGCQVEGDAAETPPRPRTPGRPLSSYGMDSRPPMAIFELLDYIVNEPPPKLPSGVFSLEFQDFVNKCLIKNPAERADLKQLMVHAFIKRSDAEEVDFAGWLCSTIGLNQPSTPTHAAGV
Sequence of EGFR (ErbB1) (P00533 25-1210): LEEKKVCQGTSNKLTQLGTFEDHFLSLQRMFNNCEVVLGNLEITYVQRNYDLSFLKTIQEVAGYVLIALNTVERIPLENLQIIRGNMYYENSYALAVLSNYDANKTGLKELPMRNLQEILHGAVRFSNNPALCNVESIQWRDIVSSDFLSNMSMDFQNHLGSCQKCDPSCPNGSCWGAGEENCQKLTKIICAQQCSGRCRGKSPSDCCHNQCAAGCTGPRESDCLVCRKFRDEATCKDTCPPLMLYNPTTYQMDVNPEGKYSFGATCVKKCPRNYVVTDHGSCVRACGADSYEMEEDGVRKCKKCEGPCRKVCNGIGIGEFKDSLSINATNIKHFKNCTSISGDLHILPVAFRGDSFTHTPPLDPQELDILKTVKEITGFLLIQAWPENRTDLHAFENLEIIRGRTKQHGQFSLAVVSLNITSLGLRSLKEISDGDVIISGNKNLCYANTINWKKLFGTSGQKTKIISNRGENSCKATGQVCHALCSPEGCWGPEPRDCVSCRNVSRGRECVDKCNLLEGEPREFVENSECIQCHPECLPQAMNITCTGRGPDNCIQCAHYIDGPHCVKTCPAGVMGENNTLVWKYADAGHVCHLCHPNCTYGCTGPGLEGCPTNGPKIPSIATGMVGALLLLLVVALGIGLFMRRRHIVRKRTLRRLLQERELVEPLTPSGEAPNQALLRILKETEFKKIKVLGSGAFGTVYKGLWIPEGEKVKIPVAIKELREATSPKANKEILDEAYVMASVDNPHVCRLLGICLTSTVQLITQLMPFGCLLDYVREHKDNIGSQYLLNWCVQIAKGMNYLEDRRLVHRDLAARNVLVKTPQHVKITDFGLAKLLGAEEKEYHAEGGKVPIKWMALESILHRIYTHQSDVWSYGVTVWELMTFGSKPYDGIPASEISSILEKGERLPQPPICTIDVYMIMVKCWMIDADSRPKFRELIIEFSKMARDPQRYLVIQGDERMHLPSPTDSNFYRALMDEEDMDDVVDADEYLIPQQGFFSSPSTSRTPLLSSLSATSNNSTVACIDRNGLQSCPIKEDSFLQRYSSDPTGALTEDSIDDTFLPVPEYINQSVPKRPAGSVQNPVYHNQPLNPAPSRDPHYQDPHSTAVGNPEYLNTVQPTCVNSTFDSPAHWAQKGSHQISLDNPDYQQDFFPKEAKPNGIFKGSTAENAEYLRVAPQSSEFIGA

- inhibition at 10 µg/mL (EGFR (ErbB1); 10 μg/ml): 43%
- inhibition at 50 µg/mL (EGFR (ErbB1); cell free, 50 μg/ml): 43%
- inhibition at 100 µg/mL (EGFR (ErbB1); cell free, 100 μg/ml): -12%
- inhibition at 250 µg/mL (EGFR (ErbB1); cell free, 250 μg/ml): -29%
- inhibition at 500 µg/mL (EGFR (ErbB1); cell free, 500 μg/ml): -56%
- inhibition at 1000 µg/mL (EGFR (ErbB1); cell free, 1000 μg/ml): -87%
- inhibition at 2000 µg/mL (EGFR (ErbB1); cell free, 2000 μg/ml): -155%
- inhibition of MAP2K1 (MEK1) (MAP2K1 (MEK1); 10 μg/ml-5000 μg/ml): 23%-49%
- inhibition at 50 µg/mL (MAP2K1 (MEK1); cell free, 50 μg/ml): 49%
- inhibition at 100 µg/mL (MAP2K1 (MEK1); cell free, 100 μg/ml): 26%
- inhibition at 250 µg/mL (MAP2K1 (MEK1); cell free, 250 μg/ml): 30%
- inhibition at 500 µg/mL (MAP2K1 (MEK1); cell free, 500 μg/ml): 23%
- inhibition at 1000 µg/mL (MAP2K1 (MEK1); cell free, 1000 μg/ml): 13%
- inhibition at 2000 µg/mL (MAP2K1 (MEK1); cell free, 2000 μg/ml): -16%
- inhibition at 5000 µg/mL (MAP2K1 (MEK1); cell free, 5000 μg/ml): -81%
Substance: H-WVQRVVEKFLK-OH [IS181, H-Trp-Val-Gln-Arg-Val-Val-Glu-Lys-Phe-Leu-Lys-OH]
- % induction of DNA fragmentation ([1]; 100 μg/ml): −18.8%
- overall effect on induction of DNA fragmentation with respect to untreated ([1]; 100 μg/ml to 5000 μg/ml): −18.8% to 83.3%
- % induction of DNA fragmentation ([1]; 500 μg/ml): 35.4%
- % induction of DNA fragmentation ([1]; 1000 μg/ml): 35.4%
- % induction of DNA fragmentation ([1]; 2000 μg/ml): 27.1%
- % induction of DNA fragmentation ([1]; 5000 μg/ml): 83.3%
- endothelial morphogenesis on matrigel [2]: Complete inhibition
- endothelial tube formation ([2]; 1 6 g/ml to 1000 6 g/m/1): block endothelial tube formation
- viability at 24 h, 10 μg/ml ([3]; 10 μg/ml): 81.2%
- viability at 24 h, 50 μg/ml ([3]; 50 μg/ml): 84.2%
- viability at 24 h, 100 μg/ml ([3]; 100 μg/ml): 90.4%
- viability at 24 h, 500 μg/ml ([3]; 500 μg/ml): 88.5%
- viability at 24 h, 1 mg/ml ([3]; 1 mg/ml): 61.3%
- viability at 24 h, 5 mg/ml ([3]; 5 mg/ml): 15%
- cytotoxicity ([4]; THP-1, 10 μg/ml-500 μg/ml): 25%
- cytotoxicity ([4]; THP-1, 1 mg/ml): 38.7%
- cytotoxicity ([4]; THP-1, 5 mg/ml): 85%
- % Decrease in 8-OCO-G formation with respect to UVB irradiated untreated cells (8-oxo-G): 15.5%
- histopathology ear thickness ([5]; 0.3 mg/kg, s.c.): maximum reduction in ear thickness
- hyperkeratosis ([5]; 1.2 mg/kg i.m. and i.v.): reduction in hyperkeratosis
- reduction in IL-23 (ear homogenate) compared to disease control ([5]; BALB/C mice, 0.3 mg/kg): 62.35%
- reduction in TNFα (ear homogenate) compared to disease control ([5]; BALB/C mice, 0.3 mg/kg s.c.): 24.98%
- reduction in TNFα (ear homogenate) compared to disease control ([5]; BALB/C mice, 1.2 mg/kg i.m.): 21.28%
- dorsal skin thickness ([5]; across the groups except 0.6 mg/kg s.c. and 1.2 mg/kg i.m.): mild reduction in dorsal skin thickness, however which was not significant
- punch biopsy weight ([5]; across the groups except 1.2 mg/kg, i.m.): mild reduction in punch biopsy weight, however which was not significant
- IL-17A (ear homogenate) ([5]; across the treated groups): No changes in IL-17A
- clinical score ([5]; across the treated groups): No substantial changes in clinical score
- erythema index ([5]; across the treated groups): No changes in erythema index
- ear thickness (life phase) compared to disease control ([5]; s.c.): mild reduction in ear thickness
- edema compared to disease control ([5]; s.c. (1.2, 0.6 and 0.3 mg/kg)): reduction in edema
- inflammatory cells infiltration compared to disease control ([5]; s.c. (1.2, 0.6 and 0.3 mg/kg) and 1.2 mg/kg i.v.): reduction in inflammatory cells infiltration
- Rete peg proliferation ([5]; s.c. (at 1.2, 0.6 and 0.3, mg/kg)): reduction in Rete peg proliferation
- spleen weight ([5]; s.c. route, 1.2 mg/kg): maximum reduction in spleen weight, however which was not significant
- hyperkeratosis ([5]; s.c., 0.3 mg/kg): maximum effect
